15 compounds from PubChem BioAssay AID248 (DTP/NCI, 2004) can be followed below.

The subject of the assay is L1210 leukemia ip in BDF1 mice, survival T/C. As to the kind of experiment: NCI In Vivo Anticancer Drug Screen. Data for tumor model L1210 Leukemia (intraperitoneal) in B6D2F1 (BDF1) mice. The note with it: endpoint: mean survival time, higher = longer survival. In outline: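 In this screen, tumor-bearing mice given compound are compared to those given vehicle, and their survival values are reported as a treated-to-control quotient.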

Setting [1] is: dose: 100.0 mg/kg/injection, schedule: Q04DX003 (ip), vehicle: saline with Tween-80.
[2] abbreviates: dose: 200.0 mg/kg/injection, schedule: Q04DX003 (ip), vehicle: saline with Tween-80.
The mark [3] stands for this setting: dose: 400.0 mg/kg/injection, schedule: Q04DX003 (ip), vehicle: saline with Tween-80.
[4] abbreviates: dose: 50.0 mg/kg/injection, schedule: Q01DX009 (ip), vehicle: saline.
Setting [5] is: dose: 100.0 mg/kg/injection, schedule: Q01DX009 (ip), vehicle: saline.
[6] abbreviates: dose: 100.0 mg/kg/injection, schedule: Q04DX003 (ip), vehicle: saline.
Where [7] appears, read: dose: 200.0 mg/kg/injection, schedule: Q01DX009 (ip), vehicle: saline.
Where [8] appears, read: dose: 200.0 mg/kg/injection, schedule: Q04DX003 (ip), vehicle: saline.
Where [9] appears, read: dose: 400.0 mg/kg/injection, schedule: Q01DX009 (ip), vehicle: saline.
[10] abbreviates: dose: 400.0 mg/kg/injection, schedule: Q04DX003 (ip), vehicle: saline.
Setting [11] is: dose: 100.0 mg/kg/injection, schedule: Q01DX009 (ip), vehicle: saline with Tween-80.
Where [12] appears, read: dose: 200.0 mg/kg/injection, schedule: Q01DX009 (ip), vehicle: saline with Tween-80.
[13] abbreviates: dose: 400.0 mg/kg/injection, schedule: Q01DX001 (ip), vehicle: saline.
The mark [14] stands for this setting: dose: 400.0 mg/kg/injection, schedule: Q01DX001 (ip), vehicle: carboxymethylcellulose (CMC).

Several values for one entry are separate records, joined by “and”; a condition that tells them apart may be missing. Identical values can stand only once. Toxic doses and inconclusive results are not listed. Peptide text beside a SMILES is read from it. * marks the point of attachment. Trt = c1ccc(C(c2ccccc2)(c2ccccc2)*)cc1; OtBu = CC(C)(C)O*

With `c1ccc([CH2][Ge]([c]2ccccc2)([c]2ccccc2)[c]2ccccc2)cc1`, the T/C by setting is: (dose: 25.6 mg/kg/injection, schedule: Q04DX002 (ip), vehicle: saline with Tween-80) 89 % of control; (dose: 64.0 mg/kg/injection, schedule: Q04DX002 (ip), vehicle: saline with Tween-80) 93 % of control; under setting [1], 104 % of control; (dose: 160.0 mg/kg/injection, schedule: Q04DX002 (ip), vehicle: saline with Tween-80) 89 % of control; under setting [2], 96 % of control; (dose: 400.0 mg/kg/injection, schedule: Q04DX002 (ip), vehicle: saline with Tween-80) 89 % of control. Under setting [3], the T/C is 102 % of control.
With `CC(N)(Cc1ccc(O)c(O)c1)C(=O)O` (stereo not given), the T/C is, setting by setting: (dose: 25.0 mg/kg/injection, schedule: Q01DX009 (ip), vehicle: saline) 109 % of control; (dose: 25.0 mg/kg/injection, schedule: Q04DX003 (ip), vehicle: saline) 103 % of control; under setting [4], 101 % of control; (dose: 50.0 mg/kg/injection, schedule: Q04DX003 (ip), vehicle: saline) 95 % of control; under setting [5], 105 % of control; under setting [6], 103 % of control. Further, the T/C under setting [7] is 111 % of control, the T/C under setting [8] is 106 % of control, the T/C under setting [9] is 117 % of control and the T/C under setting [10] is 103 % of control.
On to `O=S(=O)(NCCNS(=O)(=O)c1ccccc1)c1ccccc1`, for which the T/C runs as follows: under setting [11], 96 % of control; under setting [12], 94 % of control; (dose: 400.0 mg/kg/injection, schedule: Q01DX009 (ip), vehicle: saline with Tween-80) 95 % of control.
With `COc1ccc2[nH]c(-c3ccccc3)c(-c3ccccc3)c2c1`, the T/C is, setting by setting: under setting [11], 90 % of control; under setting [1], 89 % of control; under setting [2], 87 % of control; under setting [3], 92 % of control.
With `CC1CN1C(=O)OCCOC(=O)N1CC1C` (stereo not given), the T/C is, setting by setting: (dose: 200.0 mg/kg/injection, schedule: Q01DX Z (ip), vehicle: saline) 108 % of control; (dose: 444.0 mg/kg/injection, schedule: Q01DX009 (ip), vehicle: saline) 104 % of control; (dose: 450.0 mg/kg/injection, schedule: Q01DX Z (ip), vehicle: saline) 188 % of control; (dose: 666.0 mg/kg/injection, schedule: Q01DX009 (ip), vehicle: saline) 107 % of control; (dose: 675.0 mg/kg/injection, schedule: Q01DX Z (ip), vehicle: saline) 195 % of control; (dose: 750.0 mg/kg/injection, schedule: Q01DX001 (ip), vehicle: saline) 117 % of control. The T/C is 115 % of control (dose: 1000.0 mg/kg/injection, schedule: Q01DX009 (ip), vehicle: saline); 106 % of control (dose: 1500.0 mg/kg/injection, schedule: Q01DX001 (ip), vehicle: saline); 96 % of control (dose: 1500.0 mg/kg/injection, schedule: Q01DX009 (ip), vehicle: saline).
As to `CC(C)C1=NNC(=O)C1(C)C`, the T/C (dose: 100.0 mg/kg/injection, schedule: Q01DX001 (ip), vehicle: saline) is 105 % of control; the T/C (dose: 200.0 mg/kg/injection, schedule: Q01DX001 (ip), vehicle: saline) is 108 % of control; the T/C under setting [13] was 108 % of control.
On to `OC1CC2CCC(C1)N2CCCN1c2ccccc2Sc2ccc(Cl)cc21` (stereo not given), for which the T/C is 112 % of control (dose: 25.0 mg/kg/injection, schedule: Q01DX009 (ip), vehicle: saline with Tween-80); 87 % of control (dose: 50.0 mg/kg/injection, schedule: Q01DX009 (ip), vehicle: saline with Tween-80); 97 % of control (dose: 50.0 mg/kg/injection, schedule: Q04DX003 (ip), vehicle: saline with Tween-80); 112 % of control under setting [1]; 107 % of control (dose: 133.0 mg/kg/injection, schedule: Q04DX003 (ip), vehicle: saline with Tween-80).
On to `O=Cc1ccc(C=O)cc1`, for which the T/C by setting is: under setting [1], 94 % of control; under setting [2], 105 % of control; under setting [3], 106 % of control.
Turning to `OCCOc1cc(Cl)c(Cl)cc1Cl`, the T/C runs as follows: (dose: 25.0 mg/kg/injection, schedule: Q04DX003 (ip), vehicle: carboxymethylcellulose (CMC)) 95 % of control; (dose: 50.0 mg/kg/injection, schedule: Q01DX009 (ip), vehicle: carboxymethylcellulose (CMC)) 93 % of control and 102 % of control; (dose: 50.0 mg/kg/injection, schedule: Q04DX003 (ip), vehicle: carboxymethylcellulose (CMC)) 101 % of control; (dose: 100.0 mg/kg/injection, schedule: Q01DX009 (ip), vehicle: carboxymethylcellulose (CMC)) 101 % of control and 103 % of control; under setting [11], 103 % of control; (dose: 100.0 mg/kg/injection, schedule: Q04DX002 (ip), vehicle: carboxymethylcellulose (CMC)) 102 % of control and 103 % of control. Further, the T/C is 95 % of control (dose: 100.0 mg/kg/injection, schedule: Q04DX003 (ip), vehicle: carboxymethylcellulose (CMC)); 87 % of control under setting [12]; 103 % of control (dose: 200.0 mg/kg/injection, schedule: Q04DX002 (ip), vehicle: carboxymethylcellulose (CMC)).
With `OC1CCC2CC12` (stereo not given), the T/C is 98 % of control (dose: 50.0 mg/kg/injection, schedule: Q01DX001 (ip), vehicle: saline with Tween-80); 102 % of control and 106 % of control (dose: 100.0 mg/kg/injection, schedule: Q01DX001 (ip), vehicle: saline with Tween-80); 107 % of control and 95 % of control (dose: 200.0 mg/kg/injection, schedule: Q01DX001 (ip), vehicle: saline with Tween-80); 93 % of control (dose: 400.0 mg/kg/injection, schedule: Q01DX001 (ip), vehicle: saline with Tween-80).
`O=C1C=C(c2ccccc2)c2cccc3cccc1c23`: the T/C runs as follows: (dose: 50.0 mg/kg/injection, schedule: Q01DX001 (ip), vehicle: Klucel (hydroxypropylcellulose) (HPC)) 98 % of control; (dose: 100.0 mg/kg/injection, schedule: Q01DX001 (ip), vehicle: Klucel (hydroxypropylcellulose) (HPC)) 87 % of control; (dose: 200.0 mg/kg/injection, schedule: Q01DX001 (ip), vehicle: Klucel (hydroxypropylcellulose) (HPC)) 92 % of control.
On to `Nc1cccc(OCc2cccc([N+](=O)[O-])c2)c1`, for which the T/C is 101 % of control (dose: 100.0 mg/kg/injection, schedule: Q01DX001 (ip), vehicle: carboxymethylcellulose (CMC)); 90 % of control (dose: 200.0 mg/kg/injection, schedule: Q01DX001 (ip), vehicle: carboxymethylcellulose (CMC)); 86 % of control under setting [14].
As for `COc1cc([N+](=O)[O-])c(C)cc1NCc1ccc(OC)c(OC)c1`, the T/C by setting is: under setting [4], 96 % of control; under setting [5], 94 % of control; under setting [6], 97 % of control; under setting [7], 91 % of control; under setting [8], 98 % of control; under setting [9], 94 % of control. Also, the T/C under setting [10] was 89 % of control.
With `COc1ccccc1NC(=O)c1ccc(Cl)cc1Cl`, the T/C by setting is: (dose: 100.0 mg/kg/injection, schedule: Q01DX009 (ip), vehicle: Klucel (hydroxypropylcellulose) (HPC)) 98 % of control; (dose: 100.0 mg/kg/injection, schedule: Q04DX003 (ip), vehicle: Klucel (hydroxypropylcellulose) (HPC)) 100 % of control; (dose: 200.0 mg/kg/injection, schedule: Q01DX009 (ip), vehicle: Klucel (hydroxypropylcellulose) (HPC)) 93 % of control; (dose: 200.0 mg/kg/injection, schedule: Q04DX003 (ip), vehicle: Klucel (hydroxypropylcellulose) (HPC)) 96 % of control; (dose: 400.0 mg/kg/injection, schedule: Q01DX009 (ip), vehicle: Klucel (hydroxypropylcellulose) (HPC)) 93 % of control; (dose: 400.0 mg/kg/injection, schedule: Q04DX003 (ip), vehicle: Klucel (hydroxypropylcellulose) (HPC)) 97 % of control.
For `CC(C)(C)OC(=O)CNC(=O)C(Cc1ccccc1)NC(=O)C(N)CSC(c1ccccc1)(c1ccccc1)c1ccccc1` (stereo not drawn) (H-Cys(Trt)-Phe-Gly-OtBu; configuration not given here), the T/C (dose: 264.0 mg/kg/injection, schedule: Q01DX001 (ip), vehicle: carboxymethylcellulose (CMC)) is 104 % of control; the T/C (dose: 264.0 mg/kg/injection, schedule: Q01DX001 (ip), vehicle: saline) was 110 % of control; the T/C under setting [14] was 107 % of control; the T/C under setting [13] was 115 % of control.
